# Experimental data published in patent publication US8338339B2, “Process for inhibition of proteolytic activity during the ensiling of forages” (The United States of America as represented by the …, priority 2003, dated 2012).
# Legend:
# Format in all cases: biochemical
# [1] = test system: proteolysis in leaf extracts of transgenic alfalfa expressing the red clover PPO1 gene; test: Proteolysis (amino acid release) in PPO-alfalfa leaf extracts / alfalfa extracts with PPO activity; settings: for inhibition of proteolysis: 3 mM caffeic acid
# Experimental: (§1) Clarified extracts of red clover leaves were made in 50 mM MES, pH 6.5 (crude extract in Table 1). Where indicated, extracts were desalted using a Sephadex G-25 spin column equilibrated with 50 mM MES, pH 6.5, to remove low molecular weight molecules (i.e. o-diphenols). Extract protein concentrations were adjusted to 2 mg/ml with buffer. Where indicated, the o-diphenol in the form of caffeic acid (CA) was added to a final concentration of 3 mM. Extracts were incubated at 37° C. At the indicated times, samples were removed, trichloroacetic acid (TCA) added to 5%, and release of free amino acids (a measure of proteolytic activity) into the TCA-soluble supernatant was determined by ninhydrin assay. Data are the average of three experiments using independent tissue samples ±standard error.
# (§2) Proteolysis was measured in leaf extracts essentially as described in Experiment 1 above. The o-diphenol in the form of caffeic acid was added to 3 mM caffeic acid. Data are the average of three experiments using independent tissue samples ±standard error.
# (§3) Proteolysis after a four hour incubation at 37° C. was measured essentially as described for Experiment 1 above in leaf extracts of either transgenic alfalfa expressing the red clover PPO1 gene (PPO-alfalfa) or control-alfalfa not expressing an exogenous PPO gene (control-alfalfa) using the o-diphenol in the form of caffeic acid at various concentrations up to 10 mM. Data are the average of three experiments using independent tissue samples ±standard error.
# (§4) Proteolysis in the reaction mixtures following a four hour incubation at 37° C. was measured essentially as described above for reaction mixture with and without caffeic acid added to 3 mM (+CA and −CA, respectively). Data are the average of three experiments using independent tissue samples ±standard error.
# (§5) Proteolysis after a four hour incubation at 37° C. was measured (as described in Example 1 above) of alfalfa for reaction mixtures containing either 250 mU/ml PPO activity (protein adjusted to 2 mg/ml with control alfalfa extract) or a control alfalfa extract (2 mg/ml protein). Various o-diphenols were present in the reaction mixtures at 3 mM, including caffeic acid (CA) hydrocaffeic acid (HCA), chlorogenic acid (CGA), catechol, and (−)-epicatichin.
# [2] = test system: proteolytic activity in red clover leaf extracts; test: Proteolysis (release of free amino acids, ninhydrin assay) in red clover leaf extracts; settings: desalted red clover extract + 3 mM CA, 37° C.
# Experimental: as §1, with “At the indicated times, samples were removed, trichloroacetic acid (TCA) added to 5%, and release of free amino acids (a measure of proteolytic activity) into the TCA-soluble supernatant was determined by ninhydrin assay.” left out
# [3] = test system: proteolysis in oat leaf extracts; test: Proteolysis (amino acid release) in oat leaf extracts; settings: for Mean amino acid release: with 3 mM Caffeic Acid
# Experimental: as §1
# Proteolysis was measured in oat leaf extracts or oat leaf extracts with PPO activity added (125 mU/ml). The added PPO activity was from an extract of red clover PPO1-expressing alfalfa. […] Total protein was 1.75 mg/ml. In Oat+alfalfa extracts, oat protein was present at 1.4 mg/ml and alfalfa protein was present at 0.35 mg/ml. Caffeic acid was present at 3 mM. Results in Table 6 below are for the average of two experiments using independent tissue samples.
# [4] = test system: proteolysis in control-alfalfa leaf extracts (no PPO transgene); test: Proteolysis (amino acid release) in control-alfalfa leaf extracts
# Experimental: as §1, §2, §3, §4, §5
# [5] = test system: polyphenol oxidase (PPO), red clover PPO1 gene product; test: PPO activity (caffeic acid oxidized per minute, TNB protocol); settings: PPO1 expressed in transgenic alfalfa
# Experimental: The o-diphenol compound is applied to forage at a rate ranging from about 5 to about 30 micromoles per gram of fresh weight forage and the oxidase is applied at a rate of about 0.1 to about 1 unit per gram of fresh weight forage. One unit is defined as one micromole of caffeic acid oxidized per minute by the following protocol.
# The protocol used to determine activity is carried out at 25° C. The buffer is 20 mM TRIS-acetate pH 7.0. The caffeic acid is 100 mM in ethyl alcohol. […] The decrease in absorbance at 412 nm (TNB) from 2-5 minutes is used to determine PPO activity.
# PPO activity present in reaction mixtures was varied from 0 to 500 mU/ml of extract by mixing extracts from PPO- and control-alfalfa (1 U=1 micromole caffeic acid oxidized/min; red clover and PPO-Alfalfa have 0.5-5 U activity/mg protein) to achieve a final protein concentration of 2 mg/ml. Proteolysis in the reaction mixtures following a four hour incubation at 37° C. was measured essentially as described above for reaction mixture with and without caffeic acid added to 3 mM (+CA and −CA, respectively). […]
# [6] = PPO-Alfalfa, 250 mU/ml PPO activity, substrate 3 mM, 37° C.
# [7] = Control-Alfalfa extract 2 mg/ml protein, substrate 3 mM, 37° C.
structure (smiles),measurement,setting,value
"O=C(O)/C=C/c1ccc(O)c(O)c1 [CA, caffeic acid]",Mean four hour Amino Acid Release,"[1]; 3 mM Caffeic Acid, PPO 16 mU/ml, protein 2 mg/ml",0.36 ± 0.03 µmol/mg
same,Mean four hour Amino Acid Release,"[1]; 3 mM Caffeic Acid, PPO 32 mU/ml, protein 2 mg/ml",0.34 ± 0.05 µmol/mg
same,Mean four hour Amino Acid Release,"[1]; 3 mM Caffeic Acid, PPO 62.5 mU/ml, protein 2 mg/ml",0.21 ± 0.02 µmol/mg
same,Mean four hour Amino Acid Release,"[1]; 3 mM Caffeic Acid, PPO 125 mU/ml, protein 2 mg/ml",0.15 ± 0.03 µmol/mg
same,Mean four hour Amino Acid Release,"[1]; 3 mM Caffeic Acid, PPO 250 mU/ml, protein 2 mg/ml",0.12 ± 0.01 µmol/mg
same,Mean four hour Amino Acid Release,"[1]; 3 mM Caffeic Acid, PPO 500 mU/ml, protein 2 mg/ml",0.06 ± 0.03 µmol/mg
same,inhibition of proteolysis,"[1]; >125 mU/ml PPO activity, four hour",> 80%
same,inhibition of proteolysis,"[1]; PPO activity 16 mU/ml, four hour",> 50%
same,Mean four hour Amino Acid Release,[1]; [6],0.12 ± 0.03 µmol/mg
same,Mean four hour Amino Acid Release,"[1]; PPO-Alfalfa, caffeic acid 0.5 mM, 37° C.",0.32 ± 0.03 µmol/mg
same,Mean four hour Amino Acid Release,"[1]; PPO-Alfalfa, caffeic acid 1 mM, 37° C.",0.25 ± 0.03 µmol/mg
same,Mean four hour Amino Acid Release,"[1]; PPO-Alfalfa, caffeic acid 2 mM, 37° C.",0.16 ± 0.03 µmol/mg
same,Mean four hour Amino Acid Release,"[1]; PPO-Alfalfa, caffeic acid 3 mM, 37° C.",0.11 ± 0.02 µmol/mg
same,Mean four hour Amino Acid Release,"[1]; PPO-Alfalfa, caffeic acid 4 mM, 37° C.",0.08 ± 0.02 µmol/mg
same,Mean four hour Amino Acid Release,"[1]; PPO-Alfalfa, caffeic acid 5 mM, 37° C.",0.06 ± 0.01 µmol/mg
same,Mean four hour Amino Acid Release,"[1]; PPO-Alfalfa, caffeic acid 10 mM, 37° C.",0.04 ± 0.02 µmol/mg
same,proteolytic inhibition compared to extracts to which no caffeic acid was added,"[1]; caffeic acid 0.5 mM, PPO-alfalfa extract, four hour",> 50%
same,reduction in proteolysis,[1]; caffeic acid 3 mM added to PPO-alfalfa extract,~80%
same,proteolytic inhibition,"[1]; caffeic acid 3 mM, PPO-alfalfa extract, four hour",> 80%
same,release of free amino acids,[2]; 0 h,0.00 ± 0.00
same,release of free amino acids,[2]; 1 h,0.04 ± 0.01
same,release of free amino acids,[2]; 2 h,0.06 ± 0.01
same,release of free amino acids,[2]; 3 h,0.09 ± 0.01
same,release of free amino acids,[2]; 4 h,0.11 ± 0.02
same,proteolytic inhibition,[3]; 3 mM caffeic acid with exogenous PPO added (125 mU/ml) to oat extract,~50%
same,Mean amino acid release,"[3]; Oat extract, time 0",0.00 ± 0.00 μmol/mg protein
same,Mean amino acid release,"[3]; Oat extract, time 1",0.82 ± 0.18 μmol/mg protein
same,Mean amino acid release,"[3]; Oat extract, time 2",1.39 ± 0.09 μmol/mg protein
same,Mean amino acid release,"[3]; Oat extract, time 3",1.73 ± 0.15 μmol/mg protein
same,Mean amino acid release,"[3]; Oat extract, time 4",1.79 ± 0.07 μmol/mg protein
same,Mean amino acid release,"[3]; Oat/Control-Alf extract, time 0",0.00 ± 0.00 μmol/mg protein
same,Mean amino acid release,"[3]; Oat/Control-Alf extract, time 1",0.75 ± 0.17 μmol/mg protein
same,Mean amino acid release,"[3]; Oat/Control-Alf extract, time 2",1.42 ± 0.06 μmol/mg protein
same,Mean amino acid release,"[3]; Oat/Control-Alf extract, time 3",1.73 ± 0.05 μmol/mg protein
same,Mean amino acid release,"[3]; Oat/Control-Alf extract, time 4",1.91 ± 0.05 μmol/mg protein
same,Mean amino acid release,"[3]; Oat/PPO-Alf (PPO 125 mU/ml), time 0",0.00 ± 0.00 μmol/mg protein
same,Mean amino acid release,"[3]; Oat/PPO-Alf (PPO 125 mU/ml), time 1",0.60 ± 0.20 μmol/mg protein
same,Mean amino acid release,"[3]; Oat/PPO-Alf (PPO 125 mU/ml), time 2",0.80 ± 0.13 μmol/mg protein
same,Mean amino acid release,"[3]; Oat/PPO-Alf (PPO 125 mU/ml), time 3",0.82 ± 0.11 μmol/mg protein
same,Mean amino acid release,"[3]; Oat/PPO-Alf (PPO 125 mU/ml), time 4",1.02 ± 0.22 μmol/mg protein
same,lower proteolysis than counterparts lacking caffeic acid,[3]; all oat reactions containing 3 mM CA,10-30%
same,Mean four hour Amino Acid Release,"[4]; 3 mM Caffeic Acid, PPO 0 mU/ml (control-alfalfa extract), protein 2 mg/ml",0.79 ± 0.10 µmol/mg
same,Mean four hour Amino Acid Release,[4]; [7],0.75 ± 0.08 µmol/mg
same,Mean four hour Amino Acid Release,"[4]; Control-Alfalfa, caffeic acid 0.5 mM, 37° C.",0.75 ± 0.09 µmol/mg
same,Mean four hour Amino Acid Release,"[4]; Control-Alfalfa, caffeic acid 1 mM, 37° C.",0.69 ± 0.06 µmol/mg
same,Mean four hour Amino Acid Release,"[4]; Control-Alfalfa, caffeic acid 2 mM, 37° C.",0.70 ± 0.07 µmol/mg
same,Mean four hour Amino Acid Release,"[4]; Control-Alfalfa, caffeic acid 3 mM, 37° C.",0.66 ± 0.09 µmol/mg
same,Mean four hour Amino Acid Release,"[4]; Control-Alfalfa, caffeic acid 4 mM, 37° C.",0.75 ± 0.07 µmol/mg
same,Mean four hour Amino Acid Release,"[4]; Control-Alfalfa, caffeic acid 5 mM, 37° C.",0.75 ± 0.11 µmol/mg
same,Mean four hour Amino Acid Release,"[4]; Control-Alfalfa, caffeic acid 10 mM, 37° C.",0.65 ± 0.06 µmol/mg
same,effect on proteolysis,[4]; caffeic acid 3 mM added to control alfalfa extracts,no significant effect
same,effect on proteolysis,"[4]; in the absence of PPO activity, caffeic acid up to 10 mM",little effect
"O=C(/C=C/c1ccc(O)c(O)c1)O[C@@H]1C[C@](O)(C(=O)O)C[C@@H](O)[C@H]1O [CGA, chlorogenic acid]",Mean four hour Amino Acid Release,[1]; [6],0.26 ± 0.06 µmol/mg
same,Mean four hour Amino Acid Release,[4]; [7],0.80 ± 0.06 µmol/mg
"Oc1ccccc1O [Catechol, catechol]",proteolytic inhibition (in words),"[1]; 3 mM, PPO present (250 mU/ml), four hour",significant proteolytic inhibition
same,Mean four hour Amino Acid Release,[1]; [6],0.37 ± 0.05 µmol/mg
same,Mean four hour Amino Acid Release,[4]; [7],0.71 ± 0.10 µmol/mg
same,substrate quality for the red clover PPO1 gene product,[5],relatively poor substrate
"Oc1cc(O)c2c(c1)O[C@H](c1ccc(O)c(O)c1)[C@H](O)C2 [Epicatichin, (−)-epicatichin]",Mean four hour Amino Acid Release,[1]; [6],0.25 ± 0.08 µmol/mg
same,Mean four hour Amino Acid Release,[4]; [7],0.64 ± 0.08 µmol/mg
"O=C(O)CCc1ccc(O)c(O)c1 [HCA, hydrocaffeic acid]",Mean four hour Amino Acid Release,[1]; [6],0.25 ± 0.07 µmol/mg
same,Mean four hour Amino Acid Release,[4]; [7],0.70 ± 0.07 µmol/mg
